# In US20240165145A1, “COMPOSITIONS AND METHODS FOR TREATING CANCER AND BIOMARKERS TO DETECT CANCER STEM CELL REPROGRAMMING AND PROGRESSION” (The Regents of the University of California, priority 2016, published 2024):
# Key:
# [1] = tested on: ADAR-mediated A-to-I editing activity in K562 leukemia cells co-transduced with lenti-ADAR1 and lenti-JAK2; experiment: Dual luciferase reporter assay of ADAR-specific RNA editing activity in K562 cells; format: cell-based, human; conditions: SAR302503 100 nM or 300 nM, 3 hrs
# let-7 miRNA = experiment: miRNA PCR of let-7 family in CD34+ cord blood cells co-transduced with lenti-JAK2 and lenti-BCR-ABL on SL/M2 stromal cultures; format: cell-based, human
# Method: Human specific RPL27 primers were used as housekeeping control. MicroRNA extraction was performed using the RNeasy Micro Kit (Qiagen) according to the manufacturer's instructions. Then 30 ng of cDNA was prepared in a reverse transcription reaction using miScript RTII™ kit (Qiagen) and served as a template for the quantification of the expression of mature miRNA of interest. Also, qRT-PCR was performed using miRNA human-specific primers and SYBR Green Kit (Qiagen). MiScript™ primers, RNU6_2 (Qiagen), were used as housekeeping control.
# RNA editing of APOBEC3D = experiment: RESSqPCR RNA editing ratio of APOBEC3D in CD34+ cord blood cells co-transduced with lenti-JAK2 and lenti-BCR-ABL; format: cell-based, human; conditions: JAK2/BCR-ABL1 transduced progenitors, two weeks SL/M2 stromal co-culture; 8-Aza 10-25 nM, SAR302503 100 nM
# LIN28B = LIN28B expression in CD34+ cord blood cells co-transduced with lenti-JAK2 and lenti-BCR-ABL; format: cell-based, human; conditions: JAK2/BCR-ABL1 transduced progenitors, two weeks SL/M2 stromal co-culture; 8-Aza 10-25 nM, SAR302503 100 nM
# ADAR1 isoforms (p150) = experiment: qRT-PCR of ADAR1 expression in CD34+ cord blood cells co-transduced with lenti-JAK2 and lenti-BCR-ABL on SL/M2 stromal cultures; conditions: for ADAR1 expression: JAK2/BCR-ABL1 transduced progenitors, two weeks SL/M2 stromal co-culture, 8-Aza 10-25 nM, SAR302503 100 nM
# ADAR1 = biological target: T1, ADAR1 (Homo sapiens, UniProt P55265); experiment: RESSqPCR RNA editing ratio of APOBEC3D in K562 cells transduced with ADAR1 WT or ADAR1 E912A mutant; format: cell-based; conditions: K562 leukemic cell line, lentiviral ADAR1 WT or ADAR1 E912A
# T1 construct: Full-length human adenosine deaminase, RNA-specific (ADAR1), transcript variant 1; T2A-GFP cassette of the vector pCDH-EF1-T2A-GFP (self-cleaving 2A; any remnant on ADAR1 not described); expressed in transfected cells; host or cells: K562 leukemia cells, lentiviral transduction (pCDH backbone)
# T1 sequence (P55265 1-1226): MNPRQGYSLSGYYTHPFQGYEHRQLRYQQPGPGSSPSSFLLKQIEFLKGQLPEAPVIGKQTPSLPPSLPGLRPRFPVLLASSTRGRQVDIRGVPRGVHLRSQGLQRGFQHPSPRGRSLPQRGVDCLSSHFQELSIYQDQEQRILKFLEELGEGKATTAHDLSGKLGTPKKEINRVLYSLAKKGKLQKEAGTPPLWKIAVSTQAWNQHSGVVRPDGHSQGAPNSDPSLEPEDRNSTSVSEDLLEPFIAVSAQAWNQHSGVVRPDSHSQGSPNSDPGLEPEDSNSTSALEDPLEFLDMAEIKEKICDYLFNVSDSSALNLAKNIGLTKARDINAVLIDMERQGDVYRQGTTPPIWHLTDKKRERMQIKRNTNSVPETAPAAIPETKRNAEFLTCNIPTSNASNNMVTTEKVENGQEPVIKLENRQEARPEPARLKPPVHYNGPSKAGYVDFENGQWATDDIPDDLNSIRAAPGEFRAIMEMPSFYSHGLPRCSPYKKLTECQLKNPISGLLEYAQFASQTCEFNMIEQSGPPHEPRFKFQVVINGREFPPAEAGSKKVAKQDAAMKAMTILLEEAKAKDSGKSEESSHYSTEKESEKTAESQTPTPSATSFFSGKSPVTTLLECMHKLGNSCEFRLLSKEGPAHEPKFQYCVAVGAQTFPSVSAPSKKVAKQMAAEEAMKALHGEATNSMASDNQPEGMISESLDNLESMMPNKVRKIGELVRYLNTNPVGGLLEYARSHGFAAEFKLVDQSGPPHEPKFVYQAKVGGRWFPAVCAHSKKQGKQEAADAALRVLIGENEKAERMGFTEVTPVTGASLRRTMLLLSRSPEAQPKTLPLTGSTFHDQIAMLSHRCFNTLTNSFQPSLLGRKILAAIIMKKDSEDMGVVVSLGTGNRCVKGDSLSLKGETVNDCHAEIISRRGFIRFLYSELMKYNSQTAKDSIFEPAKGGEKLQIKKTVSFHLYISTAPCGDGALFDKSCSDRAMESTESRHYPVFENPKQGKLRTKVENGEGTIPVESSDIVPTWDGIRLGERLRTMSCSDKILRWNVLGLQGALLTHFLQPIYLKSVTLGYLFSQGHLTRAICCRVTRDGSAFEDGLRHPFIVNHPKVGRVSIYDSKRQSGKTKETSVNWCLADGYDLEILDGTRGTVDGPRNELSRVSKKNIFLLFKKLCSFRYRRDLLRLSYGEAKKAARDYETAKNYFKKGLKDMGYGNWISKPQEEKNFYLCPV
# Description: FIG. 5b graphically illustrates data of a RNA editing ratio of APOBEC3D by RESSqPCR in K562 leukemia cells transduced with ADAR1 WT and ADAR1E912A mutant following 8-aza treatment (n=3). The values are normalized to the editing ratio observed in pCDH control cells.
# As previously described (Yildirim et al., 2013), for each RNA editing site, two sets of primers were used: one pair detecting the WT transcript (an “A” base), and one pair detecting the edited transcript containing a “G” base representing inosine substitution. The forward (FW) outer and reverse (REV) outer primers flank the editing site and can be used for Sanger sequencing validation of each editing site, and also as a qRTPCR positive control to ensure that the editing region is detectable in cDNA. The 3′ ends of the FW inner and REV inner primers match either the WT A or edited G nucleotide, and an additional mismatch was incorporated two nucleotides upstream of the 3′ primer end to enhance allelic discrimination, as previously described for quantitative detection of transcripts harboring single nucleotide genomic mutations. RESSqPCR was performed as recently described (Yildirim et al., 2013) using highly validated RNA editing site specific primers for APOBEC3D. […] Relative RNA editing rates (Relative edit/WT RNA) were calculated using the following calculation: 2^-(Ct Edit-Ct WT).
# [2] = tested on: BCR-ABL and JAK2 signaling; experiment: qRT-PCR of BCR-ABL and JAK2 mRNA and p-CRKL, p-STAT5a Western blot in K562 cells; format: cell-based, human; conditions: 8-aza at increasing concentrations
# Description: FIG. 14(a) graphically illustrates a RT-qPCR analysis of BCR-ABL and JAK2 mRNA in K562 cells transduced with pCDH vector control, lenti-ADAR1 WT, and lenti-ADAR1 mutant treated with 8-aza at increasing concentrations (n=3). FIG. 14(b) illustrates a Quantification of p-STAT5, p-CRKL, and β-actin protein expression in K562 cells transduced with pCDH vector control, lenti-ADAR1 WT, and lenti-ADAR1 mutant treated with 8-aza at increasing concentrations (n=3).
# [3] = tested on: normal CD34+ hematopoietic progenitors; experiment: Secondary colony replating of normal CD34+ progenitors after SL/M2 stromal co-culture; format: cell-based, human; conditions: SL/M2 stromal co-cultures; 8-Aza 10-25 nM, SAR302503 100 nM
# Method: FIG. 5h graphically illustrates data of a percentage of secondary colonies formed after replating primary colonies from normal bone marrow or BC CD34. cells treated with different dose of 8-aza (n=3).
# FIG. 5i graphically illustrates data of a percentage of secondary colonies formed after replating primary colonies from normal bone marrow or BC CML following treatment.
# H5100™ media (StemCell Technologies) along with different treatment. After 2 week of culture human cells were plated, in triplicate, in Methocult™ media (StemCell Technologies) for colony-forming and replating assays.
# Following lentiviral transduction or in vitro culture with SL/M2 stroma, human cells were harvested, counted by trypan blue exclusion and 100-200 cells were plated per well of a 12-well plate in Methocultmedia. After 2 weeks, total colonies were counted and replated for secondary colony-formation assay.
# [4] = JAK2/BCR-ABL1 transduced normal CD34+ progenitors, SAR302503 100 nM and 600 nM on SL/M2 stromal cultures
# [5] = JAK2/BCR-ABL1 transduced progenitors, two weeks SL/M2 stromal co-culture, 8-Aza 10-25 nM, SAR302503 100 nM
Compound,RNA editing activity (luciferase reporter) [1],let-7 miRNA biogenesis (let-7 miRNA; [4]),let-7 miRNA biogenesis (let-7 miRNA; [5]),RNA editing activity (APOBEC3D RESSqPCR) (RNA editing of APOBEC3D),LIN28B expression (LIN28B),ADAR1 p150 isoform expression (ADAR1 isoforms (p150); [4]),ADAR1 expression (ADAR1 isoforms (p150)),ADAR1's adenosine-to-inosine (A-to-I) editing activity (ADAR1),"effect on BCR-ABL and JAK2 signaling (qRT-PCR, p-CRKL and p-STAT5a Western blot) [2]",self renewal capacity of normal CD34+ hematopoietic progenitors [3]
"Cc1cnc(Nc2ccc(OCCN3CCCC3)cc2)nc1Nc1cccc(S(=O)(=O)NC(C)(C)C)c1 [SAR302503, N-tert-Butyl-3-{5-methyl-2-[4-(2-pyrrolidin-1-yl-ethoxy)-phenylamino]-pyrimidin-4-ylamino}-benzenesulfonamide]",reversed RNA editing activity in a dose dependent manner,restored let-7 miRNA biogenesis in a dose-dependent manner,restored let-7 miRNA biogenesis,reduction,reduction,reduced ADAR1 p150 isoform expression,reduction in ADAR1 expression,,,
"Nc1ncnc2c1nnn2[C@@H]1O[C@H](CO)[C@@H](O)[C@H]1O [8-aza, 8-azaadenosine]",,,restored let-7 miRNA biogenesis,reduction,reduction,,reduction in ADAR1 expression,reduced ADAR1's adenosine-to-inosine (A-to-I) editing activity,no effect on BCR-ABL and JAK2 signaling,not significantly impaired
